Data set [1] deals with Plasmodium falciparum. The experiment in a line: Antiplasmodial activity against chloroquine-sensitive Plasmodium falciparum 3D7 ring stage at 40 uM incubated for 72 hrs by DAPI-staining based imaging analysis. The class given is functional, organism-based.
For data set [2], the system named is HEK293. The experiment in a line: Cytotoxicity against human HEK293 cells assessed as reduction in cell viability at 40 uM after 72 hrs by resazurin dye based assay. The conditions noted are these: hek293, 72 h.
Data set [3] concerns Plasmodium falciparum. The experiment in a line: Antiplasmodial activity against chloroquine-resistant Plasmodium falciparum Dd2 ring stage at 40 uM incubated for 72 hrs by DAPI-staining based imaging analysis. It counts as functional, organism-based.
For data set [4], the system named is HEK293. The experiment in a line: Cytotoxicity against human HEK293 cells assessed as reduction in cell viability at 4 uM after 72 hrs by resazurin dye based assay relative to control. The conditions noted are these: hek293, 72 h.
Data set [5] deals with HEK293. The experiment in a line: Cytotoxicity against human HEK293 cells assessed as reduction in cell viability after 72 hrs by resazurin dye based assay. The conditions noted are these: HEK293, 72 h.
Data set [6] has as its system Plasmodium falciparum. In words: Antiplasmodial activity against chloroquine-sensitive Plasmodium falciparum 3D7 ring stage incubated for 72 hrs by DAPI-staining based imaging analysis. The class given is functional, organism-based. The conditions noted are these: 3D7, 72 h.
Data set [7] in a line: Selectivity index, ratio of IC50 for cytotoxicity against human HEK293 cells to IC50 for antiplasmodial activity against chloroquine-sensitive Plasmodium falciparum 3D7 ring stage. The class given is toxicity, cell-based. The conditions noted are these: read-out: Ratio IC50.
Data set [8] is described as follows: Selectivity index, ratio of IC50 for cytotoxicity against human HEK293 cells to IC50 for antiplasmodial activity against chloroquine-resistant Plasmodium falciparum Dd2 ring stage. The class given is toxicity, cell-based. The conditions noted are these: read-out: Ratio IC50.
Data set [9] has as its system Plasmodium falciparum. In words: Antiplasmodial activity against chloroquine-resistant Plasmodium falciparum Dd2 ring stage incubated for 72 hrs by DAPI-staining based imaging analysis. The conditions noted are these: Dd2, 72 h. The class given is functional, organism-based.
In data set [10] the test system is HEK293. The experiment in a line: Cytotoxicity against human HEK293 cells assessed as reduction in cell viability at 0.1 uM after 72 hrs by resazurin dye based assay. The conditions noted are these: hek293, 72 h.

The values that follow come from ChEMBL document CHEMBL4699594, “Antiplasmodial Alkaloids from the Australian Bryozoan Amathia lamourouxi” (J Nat Prod, 2020).

The source made the active and inactive calls. The calls are words filed in the database; no cut-off is given here.

For `Cn1c(Br)c(C=O)c2cc(Br)ccc21`, the result in the data set on Plasmodium falciparum [1] and in the data set on Plasmodium falciparum [3] was inactive. For the same molecule, in the data set on HEK293 [2], the Activity entry is listed as “Non-Toxic”.
With `CCN(CC)CCCC(C)Nc1ccnc2cc(Cl)ccc12` (stereo not drawn) [CHLOROQUINE], the Activity with HEK293 [4] is 67%.
On to `COc1cc(CCN(C)CCCN(C)C)c(Br)cc1Br`, for which the IC50 in the data set on HEK293 [5] worked out at 17000 nM; with Plasmodium falciparum [6], 1700 nM. Besides, the selectivity ratio in data set [7] turned out to be 10.
Turning to `COc1ccc(C[C@H](N)C(=O)N[C@H]2[C@@H](O)[C@H](n3cnc4c(N(C)C)ncnc43)O[C@@H]2CO)cc1` [PUROMYCIN], the values for the half-inhibitory concentration (IC50) in the data set on HEK293 [5] and with Plasmodium falciparum [9] were 810 nM and 68 nM, respectively. For the same molecule, the selectivity ratio in [8] was 585; in [7], 353.
`C[C@H]1[C@@H](O)O[C@@H]2O[C@@]3(C)CC[C@H]4[C@H](C)CC[C@@H]1[C@@]24OO3` [ARTENIMOL]: the Activity entry in the data set on HEK293 [10] is recorded as “Non-Toxic”. Further, the IC50 in the data set on Plasmodium falciparum [6] was 2 nM. Besides, the selectivity ratio in data set [8] came to 57; in data set [7], 62.
As for `COc1cc(CCN(C)CCCN(C)C(=O)[C@H](CCN(C)CCc2cc(OC)c(Br)cc2Br)N(C)C)c(Br)cc1Br`, the results for the IC50 in the data set on Plasmodium falciparum [6] and with Plasmodium falciparum [9] were 610 nM and 750 nM, respectively. Also, the results for the selectivity ratio in [8] and in [7] were 53 and 66, respectively. Also, in the data set with HEK293 [2], the Activity result was “Non-Toxic”.
With `CNCCc1cc(OC)c(Br)cc1Br.O=C(O)C(F)(F)F`, in the data set with Plasmodium falciparum [6], half-maximal inhibition (IC50) was put at 11000 nM. Also, the Activity result in the data set with HEK293 [2] is recorded as “Non-Toxic”. Also, the selectivity ratio in data set [7] was 4.
With `CN[C@@H](CCN(C)CCc1cc(OC)c(Br)cc1Br)C(=O)NCCCN(C)CCc1cc(OC)c(Br)cc1Br`, the IC50 in the data set on Plasmodium falciparum [6] worked out at 1600 nM; in the data set on Plasmodium falciparum [9], 1900 nM. Besides, the figures for the selectivity ratio in data set [8] and in [7] were 21 and 25, respectively. The Activity entry with HEK293 [2] is “Non-Toxic”.
With `CN[C@@H](CCN(C)CCc1cc(OC)c(Br)cc1Br)C(=O)N(C)CCCN(C)CCc1cc(OC)c(Br)cc1Br`, the figures for the IC50 in the data set on HEK293 [5], in the data set with Plasmodium falciparum [6] and in the data set on Plasmodium falciparum [9] were 11000 nM, 570 nM and 850 nM, respectively. Also, the selectivity ratio in data set [8] amounted to 13; in [7], 20.
